Series [1] relates to houseflies (Musca domestica). The series can be described thus: Test Example 10: treated filter paper with sucrose, houseflies. In kind it is in vivo. The following applies: 500 ppm, 0.7 ml on filter paper with sucrose, female adult, after 24 hours. As for the experimental part:
(§1) Test compounds are made to a formulation according to a similar method to that described in the Formulation example 5, and thereto is added water to prepare a diluted solution containing a prescribed concentration of the test compound.
A filter paper having a diameter of 5.5 cm in diameter is spread on the bottom of the cup, and 30 mg of sucrose is placed on the filter paper, and then 0.7 ml of the diluted solutions are added dropwise to the filter paper. Ten (10) houseflies (Musca domestica) female adult are released into the cup. After 24 hours, the number of the died insects is counted, and the mortality of insects is calculated by the following equation. Mortality (%)=(Number of died insects/test insects)×100

Series [2] deals with brown planthoppers (Nilaparvata lugens). The series can be described thus: Test Example 4: root uptake by rice seedling from diluted solution, brown planthoppers. Type of series: in vivo. As to conditions: 1000 ppm, 5 mL diluted solution under rice seedling, third instar larvae released after 7 days, examined after 6 days. The protocol: as §1
The diluted solution 5 mL is added to one cup, and Rice (Oryza sativa) seedling (on the developmental stage of the second true leaf) is planted in the other cup with a hole on the bottom and the other cup is placed on the cup. After 7 days, 20 brown planthoppers (Nilaparvata lugens) at the third instar larval stage are released onto the seedling. After 6 days, the number of the surviving insects is examined, and the mortality is calculated by the following equation. Mortality (%)={1−Number of surviving insects/20}×100

`CCS(=O)(=O)c1cccnc1-c1ccc(-n2cnc(C(F)(F)F)c2)nn1` [compound 7] showed a mortality of insects in series [1] of 100%.

`CCS(=O)(=O)c1cccnc1-c1ccc(-n2ccc(C(F)(F)F)n2)nn1` [compound 2] gave a mortality of insects in series [1] of 100%.

As to `CCS(=O)(=O)c1cccnc1-c1ccc(-n2cc(C(F)(F)F)cn2)nn1` [compound 9], the mortality of insects in series [1] was 100%; in series [2], not below 90%.

In the case of `CCS(=O)(=O)c1cccnc1-c1ccc(-n2cnc(C(F)(F)F)n2)nn1` [compound 4], the mortality of insects in series [1] is reported as 100%.

For the origin of these results see patent publication US11149027B2, “Heterocyclic compound” (Sumitomo Chemical Company, Limited, priority 2016, dated 2021).
